Data taken from paper PMC9508196 (Scientific Reports, 2022).
≈ marks a conversion by molar mass, not a printed value. No end group written: not given here.

How the values were obtained:
[1] = test system: A. baumannii ATCC 19,606; assay: microbe, parasite or virus in culture; format: cell-based, Acinetobacter baumannii; settings: A. baumannii ATCC 19,606; broth microdilution (modified CLSI), MHB, 2–8 × 10^5 CFU/mL, 24 h, 37 °C, triplicate
Description: (§1) Ten strains of both Gram-positive and -negative bacteria, including Staphylococcus aureus ATCC 25,923, S. epidermidis ATCC 12,228, Bacillus cereus ATCC 11,778, Listeria monocytogenes 10403S, Salmonella typhimurium ATCC 13,311, Pseudomonas aeruginosa ATCC 27,853, Shigella sonnei ATCC 11,060, A. baumannii ATCC 19,606, Escherichia coli ATCC 25,922 and E. coli O157:H7, were used in this study. Eight clinical isolates of multidrug-resistant (MDR) and extensively drug-resistant (XDR) A. baumannii, isolated from human (blood, sputum, respiratory sample, sterile site sample and urine), were kindly provided by Asst. Prof. Dr. Sakawrat Kanthawong (Faculty of Medicine, Khon Kaen University, Thailand) (Table S1). All bacterial strains, excluding L. monocytogenes 10403S and E. coli, were cultured in tryptic soy broth (TSB). L. monocytogenes was grown in TSB supplemented with 0.6% yeast extract (TSB-YE), and E. coli was cultured in Luria broth (LB). All of bacteria were cultured at 37 °C with continuous shaking at 220 rpm.
(§2) Minimum inhibitory concentration (MIC) of peptides and antibiotics was assessed by a modified version of the broth microdilution method from the Clinical and Laboratory Standards Institute (CLSI) as previously described. In brief, mid-log phase growths of microbial strains were cultured in Müeller-Hinton broth (MHB) with an initial inoculum of 2–8 × 10^5 CFU/mL. Bacteria suspensions were incubated in sterile 96-well plates with test agents at desired concentrations. […] Minimum bactericidal concentration (MBC) determination was performed using a modified version of the colony count assay. In brief, fifty µl of all non-turbid wells from MIC experiments were spread on agar plates. The MBC value was defined as the lowest concentration of peptides with no colony growth on the plate. All assays were performed in triplicate.

[2] = test system: Escherichia coli O157:H7 MT strain; format: cell-based; settings: E. coli O157:H7 MT strain; broth microdilution, MHB, 24 h, 37 °C, triplicate
Description: as §1, §2

[3] = test system: Bacillus cereus ATCC 11,778; format: cell-based; settings: B. cereus ATCC 11,778; broth microdilution, MHB, 24 h, 37 °C, triplicate
Description: as §1, §2

[4] = test system: Staphylococcus epidermidis ATCC 12,228; format: cell-based; settings: S. epidermidis ATCC 12,228; broth microdilution, MHB, 24 h, 37 °C, triplicate
Description: as §1, §2

[5] = test system: Listeria monocytogenes 10403S; format: cell-based; settings: L. monocytogenes 10403S; broth microdilution, MHB, 24 h, 37 °C, triplicate
Description: as §1, §2

[6] = test system: Shigella sonnei ATCC 11,060; format: cell-based; settings: S. sonnei ATCC 11,060; broth microdilution, MHB, 24 h, 37 °C, triplicate
Description: as §1, §2

[7] = test system: Pseudomonas aeruginosa ATCC 27,853; format: cell-based; settings: P. aeruginosa ATCC 27,853; broth microdilution, MHB, 24 h, 37 °C, triplicate
Description: as §1, §2

[8] = test system: Salmonella Typhimurium ATCC 13,311; format: cell-based; settings: S. Typhimurium ATCC 13,311; broth microdilution, MHB, 24 h, 37 °C, triplicate
Description: as §1, §2

[9] = test system: mouse fibroblast (L929) cells; assay: In vitro cytotoxicity assay (MTT); format: cell-based; settings: 24 h, peptide 62.5 µg/mL
Experimental: The colorimetric 3-(4,5 dimethylthiazol-2-yl)-2,5-diphenyltetrazolium bromide (MTT; Invitrogen) dye reduction assay was used to determine the cytotoxicity of peptides on mouse fibroblast (L929) cells (NCTC clone 929) according to a modified MTT assay. L929 cells were cultured in Dulbecco’s Modified Eagle Medium (DMEM; Gibco) containing 10% fetal bovine serum (FBS; Gibco) and 100 U/ml penicillin–streptomycin in a fully humidified atmosphere of 95% air and 5% CO2 at 37 °C. The cells (10^5 cells/well) were seeded on 96-well plates and incubated with serially diluted peptide (0.98 to 250 μg/ml) for 24 h. At the end of incubation period, MTT solution (100 µl, 0.4 mg/ml) was added to each well and incubated for 4 h. The supernatants were removed and replaced by 100 µl of DMSO to dissolve the purple formazan crystals. Absorbance was measured using a MultiskanTM FC microplate reader at a wavelength of 570 nm. Cells without peptides served as negative controls. Cell viability (percentage) was calculated using the following equation: %Cell viability=OD570of treated sample-ODBlank/OD570of control-ODBlank×100%

[10] = test system: Staphylococcus aureus ATCC 25,923; format: cell-based; settings: S. aureus ATCC 25,923; broth microdilution, MHB, 24 h, 37 °C, triplicate
Description: as §1, §2

[11] = test system: Escherichia coli ATCC 25,922; format: cell-based; settings: E. coli ATCC 25,922; broth microdilution, MHB, 24 h, 37 °C, triplicate
Description: as §1, §2

[12] = test system: human red blood cells (hRBCs); assay: Hemolysis assay; format: cell-based; settings: peptide concentration that caused 10% hemolysis; 2% (v/v) hRBCs in PBS pH 7.4, 0.98 to 250 μg/ml, 1 h, 37 °C, OD 405 nm, triplicate
Experimental: The hemolytic activity of peptides was determined as the amount of hemoglobin released from lysed human red blood cells (hRBCs) after treatment with peptide. Fresh hRBCs were collected from a healthy volunteer in polycarbonate tubes containing heparin. Then, the collected packed RBCs were washed at least three times (or until the supernatant was clear) with sterile phosphate-buffered saline pH 7.4 (PBS) and centrifuged at 2,000 × g for 5 min. The 2% (v/v) of washed hRBCs in PBS were incubated with serially diluted peptides (0.98 to 250 μg/ml) for 1 h at 37 °C. After centrifugation, the supernatants were monitored for optical density (OD) at 405 nm using a Multiskan FC Microplate Reader[21]. Values for 0% (negative control) and 100% (positive control) lysis were determined by incubating the hRBCs with PBS only (ODBlank) and 0.1% (v/v) Triton X-100 (ODTriton X-100), respectively. The experiments were performed in triplicate. The percent hemolysis was calculated according to the following equation: %Hemolysis=ODSample-ODBlank/ODTriton X-100-ODBlank×100

CC[C@H](C)[C@H](NC(=O)CN)C(=O)NCC(=O)N[C@@H](C)C(=O)N[C@H](C(=O)N[C@@H](CC(C)C)C(=O)N[C@@H](CCCCN)C(=O)N[C@H](C(=O)N[C@@H](CC(C)C)C(=O)N[C@H](C(=O)N[C@H](C(=O)NCC(=O)N[C@@H](CC(C)C)C(=O)N1CCC[C@H]1C(=O)N[C@@H](C)C(=O)N[C@@H](CC(C)C)C(=O)N[C@H](C(=O)N[C@@H](CO)C(=O)N[C@@H](Cc1c[nH]c2ccccc12)C(=O)N[C@H](C(=O)N[C@@H](CCCCN)C(=O)N[C@@H](CCCNC(=N)N)C(=O)N[C@@H](CCCCN)C(=O)N[C@@H](CCCNC(=N)N)C(=O)N[C@@H](CCC(N)=O)C(=O)N[C@@H](CCC(N)=O)C(N)=O)[C@@H](C)CC)[C@@H](C)CC)[C@@H](C)O)[C@@H](C)O)C(C)C)C(C)C [Melittin, reference compound] was tested, and the MIC [1] was 3.91 µg/mL (≈ 1.37 µM), the MIC [2] was 7.81 µg/mL (≈ 2.74 µM) and the MIC [3] was 7.81 µg/mL (≈ 2.74 µM). It also gave an MIC [4] of 3.91 µg/mL (≈ 1.37 µM), an MIC [5] of 3.91 µg/mL (≈ 1.37 µM) and an MIC [6] of 3.91 µg/mL (≈ 1.37 µM). For the same compound, the MIC [7] was 7.81 µg/mL (≈ 2.74 µM), the MIC [8] was 3.91 µg/mL (≈ 1.37 µM) and the cell viability [9] was “less than 5%”.

RLFRRVKKVAGKIAKRIWKILRR-NH2 [A3P7] gave an MIC [1] of 7.81 µg/mL, an MIC [2] of 15.63 µg/mL and an MIC [3] of 7.81 µg/mL. It also gave an MIC [10] of 7.81 µg/mL, an MIC [4] of 7.81 µg/mL and an MIC [5] of 3.91 µg/mL. The MIC [6] was 7.81 µg/mL, the MIC [7] was 7.81 µg/mL and the MIC [8] was 7.81 µg/mL. For the same compound, the MIC [11] was 7.81 µg/mL and the “MHC, minimum hemolytic concentration” value [12] was 1.95 µg/mL.
